Measurements reported in publication PMC12898745, “VOCs Profiling and Quality Assessment of Milk Employing Odorant-Binding Proteins-Based Fluorescence Biosensor” (International Journal of Molecular Sciences, 2026).
Where two headings read alike, the source gives them in different places. Blank lines part the entries; values can stand above or below the molecule they belong to.

Experiments:
pOBP [1] = molecular target: T1, pOBP (Sus scrofa, UniProt P81245); experiment: Fluorescence titration with 1-AMA and competitive FRET assay on pOBP; assay type: binding, porcine
T1 sequence (P81245 1-157): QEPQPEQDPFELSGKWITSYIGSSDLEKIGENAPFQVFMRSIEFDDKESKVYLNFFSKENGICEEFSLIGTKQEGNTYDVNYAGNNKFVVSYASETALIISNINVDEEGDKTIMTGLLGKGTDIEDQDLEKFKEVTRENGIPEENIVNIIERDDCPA
Description: (§1) The ability of pOBP and bOBP to bind 1-AMA was assessed through fluorescence titration experiments. […] However, upon binding 1-AMA to OBPs, two major spectral changes were observed: • A blue-shift in the emission maximum to 481 nm, along with a significant increase in fluorescence intensity. • A decrease in the tryptophan fluorescence emission at 340 nm.
(§2) A competitive FRET assay was performed to study the interaction between the OBP and the selected VOCs. In the assay, a solution of OBPs in the presence of 1-AMA was titrated with increasing concentrations of VOCs. The fluorescence emissions at 481 nm (1-AMA bound state) and 340 nm (tryptophan emission) were recorded. A progressive decrease of 1-AMA fluorescence emission and a partial recovery of the protein tryptophan emission were observed. This trend indicates the displacement of 1-AMA from the protein binding site by individual selected VOCs. The variations in the FRET signals, due to competitive binding, were used to quantify the VOC bound to the protein.
Steady-state fluorescence measurements were conducted using an ISS K2 Frequency-Domain Fluorometer (ISS Inc., Champaign, IL, USA) with a 1.0 cm path length quartz cuvette. Fluorescence spectra of bOBP and pOBP samples were recorded, ensuring optical densities below 0.1 OD at 295 nm to prevent inner filter effects. Tryptophan (Trp) residues were excited at 295 nm, and fluorescence emission spectra were collected from 320 nm to 600 nm at 1 nm intervals, with a scan speed of 100 nm/min and excitation and emission slit widths set at 1.0 nm. The lamp power was maintained at 17.5 A. Assays were performed in 500 μL of phosphate saline buffer (PBS) at pH 7.4. The OBPs-VOCs interactions were studied by a fluorescence titration approach. For this purpose, the protein (12 µM, saturated with 1-AMA) was titrated with increasing concentrations of the tested VOC. The measurements were carried out in triplicate, and the obtained experimental data were processed by OriginPro 2021b software.
For the fluorometric competitive assay, the ability of OBPs to bind VOCs and 1-AMA was utilized to develop a FRET-based assay. The competition between VOCs and 1-AMA for binding to the OBP’s active site was studied by monitoring the fluorescence emission decrease consequent to the VOCs displacement of 1-AMA from the OBP’s active site. […] The measurements were carried out in triplicate, and the data were analyzed using the OriginPro 2021b software.

bOBP [2] = molecular target: T2, bOBP (Bos taurus, UniProt P07435); experiment: Fluorescence titration with 1-AMA and competitive FRET assay on bOBP; assay type: binding, bovine; details: read-out: bOBP Kd ± SD; non-linear fitting; PBS pH 7.4; VOCs by displacement of 1-AMA
T2 sequence (P07435 1-159): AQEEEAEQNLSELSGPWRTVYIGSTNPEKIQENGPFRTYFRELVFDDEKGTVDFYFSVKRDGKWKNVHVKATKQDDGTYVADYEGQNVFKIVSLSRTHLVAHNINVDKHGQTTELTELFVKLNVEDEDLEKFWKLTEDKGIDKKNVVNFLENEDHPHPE
Description: as §1
as §2, with “This trend indicates the displacement of 1-AMA from the protein binding site by individual selected VOCs.” left out
Steady-state fluorescence measurements were conducted using an ISS K2 Frequency-Domain Fluorometer (ISS Inc., Champaign, IL, USA) with a 1.0 cm path length quartz cuvette. Fluorescence spectra of bOBP and pOBP samples were recorded, ensuring optical densities below 0.1 OD at 295 nm to prevent inner filter effects. […] The OBPs-VOCs interactions were studied by a fluorescence titration approach. […]

pOBP [3] = molecular target: T1, pOBP; experiment: HS-SPME/GC-MS binding assay with pOBP; set-up: species or system porcine; details: pOBP 30 µM; 10 µM volatile, overnight, room temperature
Description: To assess the ability of pOBP to bind VOCs, HS-SPME/GC-MS analyses were carried out on binding assays in the absence and in the presence of the two OBPs. Binding assay experiments were conducted in parallel on samples in the absence (only buffer as negative control) and in the presence of bovine serum albumin (BSA) (used as negative control of protein) or pOBP.
The HS-SPME/GC-MS technique was used to evaluate the VOCs profiles of samples of raw cow milk and, successively, the ability of purified OBPs to bind to selected VOCs in the gas phase. According to Sacchi et al., 5 mL of milk were introduced in a HS-SPME 20 mL glass vial, with 5 µL of a standard solution of 2-methyl-3-pentanone used as internal standard (IS, 5 mM). Samples were equilibrated for 30 min at 55 °C to release VOCs. […] The analyses were carried out using the pulsed spitless mode, and mass spectra were recorded at an ionization energy of 70 eV, with mass selective detector operating in the mass range between 30 and 300 u. […]
Linear retention indices (LRIs) were calculated using the same chromatographic conditions by injecting C8–C40 n-alkane series (Supelco, Bellefonte, PA, USA). VOCs were identified by comparing the mass spectra reported in the NIST-2014 and Wiley 7.0 libraries by matching the calculated LRI with the literature data and by valuating their retention times, with respect to those of pure standards, if available. The VOCs concentrations were expressed as the equivalent of the IS (percent ratio of the respective peak area relative to the IS area, RPA%), and areas were taken from the total ion chromatogram (TIC) according to the following equation: (Peak Area of each VOC/Peak Area IS) × 100.
Using the same experimental parameters reported above, HS-SPME/GC-MS analysis was also performed on pOBP samples with and without exposition to the HS of the selected VOCs. […] The peak areas measured for PBS-only and pOBP-comprising samples were compared for each experiment. […]

pOBP [4] = molecular target: T1, pOBP; experiment: Thermal denaturation of pOBP by tryptophan fluorescence; assay type: physicochemical, porcine; details: for effect of VOC on thermal stability (Tm) of pOBP: saturating concentrations: 1-pentanol 50 mM, 1-octen-3-ol 5 mM, 2-butanone 10 mM
Description: (§3) Thermal stability studies were conducted to evaluate the temperature-induced denaturation of the pOBP and bOBP. The experiments aimed to determine the unfolding dynamics of these proteins and assess the influence of VOCs on protein stability. The thermal stabilities of pOBP and bOBP were monitored by fluorescence spectroscopy. The temperature-dependent fluorescence emission spectra were recorded in the range 320–410 nm, with excitation at 295 nm to selectively excite tryptophan residues.
(§4) Boltzmann fitting was applied to describe the thermal denaturation behavior and determine the melting temperature (Tm) values, defined as the midpoint of the transition between the folded and unfolded states. The calculated Tm values were 62 ± 0.4 °C for pOBP (Figure 6b) and 54 ± 0.5 °C for bOBP (Figure 7b).
(§5) To analyze the protein’s thermal stability, studies on temperature-induced denaturation were conducted on the chosen OBPs in the absence and presence of the selected VOCs. The emission spectra were recorded at an excitation wavelength of 295 nm to focus only on the contribution of tryptophan residues with a 12 μM pOBP sample, with an optical density around 0.1 OD at 295 nm.
Fluorescence intensity variation was recorded in the temperature range from 25 to 95 °C and the emission spectra acquired in the wavelength range 320–410 nm. Measurements were performed in triplicate after 10 min of incubation at defined temperatures. […] To analyze the thermal denaturation data, OriginPro 2021b software was used.

[5] = molecular target: bovine serum albumin (BSA) (Bos taurus, UniProt P02769); experiment: HS-SPME/GC-MS binding assay with BSA (negative control protein); details: BSA in place of pOBP; 10 µM volatile, overnight, room temperature
Chain of bovine serum albumin (BSA) (P02769 25-607): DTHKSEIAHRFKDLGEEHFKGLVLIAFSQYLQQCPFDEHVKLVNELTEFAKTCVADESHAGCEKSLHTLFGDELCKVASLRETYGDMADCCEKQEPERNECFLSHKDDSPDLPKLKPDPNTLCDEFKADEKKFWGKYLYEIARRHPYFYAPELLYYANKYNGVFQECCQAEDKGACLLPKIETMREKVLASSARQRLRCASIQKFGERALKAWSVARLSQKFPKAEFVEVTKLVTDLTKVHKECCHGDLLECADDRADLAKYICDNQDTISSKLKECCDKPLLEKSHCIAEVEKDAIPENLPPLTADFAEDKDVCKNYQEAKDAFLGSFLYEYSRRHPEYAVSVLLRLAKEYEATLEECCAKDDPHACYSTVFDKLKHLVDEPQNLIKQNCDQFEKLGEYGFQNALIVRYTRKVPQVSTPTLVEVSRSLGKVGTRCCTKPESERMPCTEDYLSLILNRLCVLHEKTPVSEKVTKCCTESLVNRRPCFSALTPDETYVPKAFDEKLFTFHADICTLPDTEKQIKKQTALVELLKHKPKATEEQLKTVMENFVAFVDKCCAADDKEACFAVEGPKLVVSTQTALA
Description: Afterwards, the fiber (DVB-Carboxen-PDMS, 2 cm length SUPELCO, Bellefonte, PA, USA) was automatically inserted in the vial for 60 min and then desorbed for 10 min at 250 °C in the injector port of a GC, model 7890A, Agilent (Agilent Technologies, Santa Clara, CA, USA) coupled to a mass spectrometer, model 5975 C (Agilent), where VOCs were thermally released and directly transported to a capillary column HP-Innowax (30 m × 0.25 mm × 0.5 µm Agilent J&W) for analysis. The oven temperature was set as follows: 40 °C for 1 min, ramped to 160 °C at 6 °C min^−1, then, after 1 min, increased 10 °C min^−1 to 210 °C, and finally ramped to 230 °C at 15 °C min^−1, and kept there for 5 min. The temperatures of the ion source and the quadrupole were 230 °C and 150 °C, respectively, and helium at a flow rate of 1.0 mL min^−1 was the carrier gas. The analyses were carried out using the pulsed spitless mode, and mass spectra were recorded at an ionization energy of 70 eV, with mass selective detector operating in the mass range between 30 and 300 u. […]
Linear retention indices (LRIs) were calculated using the same chromatographic conditions by injecting C8–C40 n-alkane series (Supelco, Bellefonte, PA, USA). VOCs were identified by comparing the mass spectra reported in the NIST-2014 and Wiley 7.0 libraries by matching the calculated LRI with the literature data and by valuating their retention times, with respect to those of pure standards, if available. The VOCs concentrations were expressed as the equivalent of the IS (percent ratio of the respective peak area relative to the IS area, RPA%), and areas were taken from the total ion chromatogram (TIC) according to the following equation: (Peak Area of each VOC/Peak Area IS) × 100. […]

bOBP [6] = molecular target: T3, bOBP (Bos taurus, UniProt P07435, H155C/INS121G/W64C); experiment: Thermal denaturation of bOBP by tryptophan fluorescence; assay type: physicochemical, bovine; details: saturating VOC concentrations
T3 construct: His tag; made in house
T3 sequence (P07435 with tags, fused parts or gaps W64C/INS121G/H155C): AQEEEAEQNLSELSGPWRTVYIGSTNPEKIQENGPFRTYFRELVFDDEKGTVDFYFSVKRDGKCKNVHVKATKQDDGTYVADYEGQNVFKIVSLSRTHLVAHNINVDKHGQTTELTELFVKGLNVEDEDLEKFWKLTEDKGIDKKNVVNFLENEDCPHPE
Description: as §3, §4, §5
Fluorescence intensity variation was recorded in the temperature range from 25 to 95 °C and the emission spectra acquired in the wavelength range 320–410 nm. […]

pOBP [7] = molecular target: T1, pOBP; set-up: method as in earlier work; details: HS-DSC, neutral pH; ref 21 (Staiano et al. 2007); cited from earlier work
pOBP [8] = molecular target: T1, pOBP; experiment: Fluorescence quenching (Stern-Volmer) of pOBP; set-up: species or system porcine; details: acrylamide quencher, no VOC
Description: To study the protein conformational changes and accessibility to the tryptophan residues, fluorescence quenching experiments were conducted. According to Lakowicz, acrylamide is the most suitable quencher for tryptophan fluorescence. The quenching effect of acrylamide on the intrinsic fluorescence of the protein was analyzed. The study aimed to characterize the accessibility of tryptophan residues, to differentiate between static and dynamic quenching mechanisms, and to assess the effects of the VOCs binding on protein stability. Fluorescence quenching can occur through two primary mechanisms: dynamic (collisional) and static quenching. Dynamic quenching occurs when acrylamide molecules collide with the fluorophore in its excited state, facilitating a non-radiative energy transfer or electron exchange. […]
To evaluate the solvent accessibility of the OBP’s tryptophan residues, a fluorescence quenching assay was performed using acrylamide. […] Fluorescence emission spectra were acquired using an excitation wavelength of 295 nm and emission range from 310 to 410 nm.
Quenching data were evaluated using the Stern–Volmer equation by plotting F0/F against [Q], where F0 represents the fluorescence intensity without quencher, F is the fluorescence intensity in the presence of quencher, and [Q] denotes the quencher concentration [Equation (2)]:(2) F0/F=1+KSV [Q]

[9] = competitive titration with VOC, Figure 4 insets, read-out: k (Hill fit), decrease of 1-AMA emission at 481 nm, pOBP
[10] = non-linear fitting, PBS pH 7.4, VOCs by displacement of 1-AMA, read-out: pOBP Kd ± SD

Molecule: Nc1cccc2cc3ccccc3cc12 [1-AMA, 1-aminoanthracene, reference compound]
Kd (pOBP [1]): 2.03 ± 0.13 µM
Kd (bOBP [2]): 2.68 ± 0.46 µM

Molecule: CCCCCO [1-pentanol]
%RPA, pOBP (pOBP [3]): 425.0 ± 8.3 %RPA
effect of VOC on thermal stability (Tm) of pOBP (pOBP [4]): significantly stabilized
Kd (pOBP [1]; [9]): 1860 µM
Kd (pOBP [1]; [10]): 1800 ± 1200 µM
%RPA, BSA [5]: 242.5 ± 5.1 %RPA
effect of VOC on thermal stability (Tm) of bOBP (bOBP [6]): highest stability

Molecule: CCC(C)=O [2-butanone]
%RPA, pOBP (pOBP [3]): 926.7 ± 10.3 %RPA
effect of VOC on thermal stability (Tm) of pOBP (pOBP [4]): significantly stabilized
Kd (pOBP [1]; [10]): 934 ± 56 µM
%RPA, BSA [5]: 276.2 ± 2.7 %RPA

Continued, in another order:

%RPA, pOBP (pOBP [3]): 708.1 ± 2.7 %RPA
Tm of pOBP in the presence of VOC (pOBP [4]; saturating VOC concentration (1-octen-3-ol 5 mM)): 64 ± 1.45 °C
effect of VOC on thermal stability (Tm) of pOBP (pOBP [4]): significantly stabilized
Kd (pOBP [1]; [9]): 479 µM
Kd (pOBP [1]; [10]): 479 ± 53 µM
%RPA, BSA [5]: 226.7 ± 8.9 %RPA
Molecule: C=CC(O)CCCCC (stereo not drawn) [1-octen-3-ol]

Stern-Volmer constant K_SV, pOBP (pOBP [8]): 3 ± 1 M^−1
B1: pOBP: porcine odorant-binding protein, a typical monomeric lipocalin used as molecular recognition element (protein, UniProt P81245 1-157, looked up)
Odorant-binding protein: T1 sequence (P81245 1-157)
melting temperature (Tm) of pOBP (pOBP [4]; no VOC, Boltzmann fitting, emission 340 nm, 25-95 °C): 62 ± 0.4 °C
unfolding transition temperature of pOBP (pOBP [7]): approximately 69 °C
